The text below walks through data of patent EP3403653A1, “COMPOUNDS FOR USE IN TREATING BIPOLAR AND RELATED DISORDERS” (Centre National de la Recherche Scientifique (CNRS), priority 2017, dated 2018).

Assay [1] deals with T1, NHE7 (Homo sapiens, UniProt Q96T83).
T1 construct: expressed in transfected cells
T1 sequence (Q96T83 1-725): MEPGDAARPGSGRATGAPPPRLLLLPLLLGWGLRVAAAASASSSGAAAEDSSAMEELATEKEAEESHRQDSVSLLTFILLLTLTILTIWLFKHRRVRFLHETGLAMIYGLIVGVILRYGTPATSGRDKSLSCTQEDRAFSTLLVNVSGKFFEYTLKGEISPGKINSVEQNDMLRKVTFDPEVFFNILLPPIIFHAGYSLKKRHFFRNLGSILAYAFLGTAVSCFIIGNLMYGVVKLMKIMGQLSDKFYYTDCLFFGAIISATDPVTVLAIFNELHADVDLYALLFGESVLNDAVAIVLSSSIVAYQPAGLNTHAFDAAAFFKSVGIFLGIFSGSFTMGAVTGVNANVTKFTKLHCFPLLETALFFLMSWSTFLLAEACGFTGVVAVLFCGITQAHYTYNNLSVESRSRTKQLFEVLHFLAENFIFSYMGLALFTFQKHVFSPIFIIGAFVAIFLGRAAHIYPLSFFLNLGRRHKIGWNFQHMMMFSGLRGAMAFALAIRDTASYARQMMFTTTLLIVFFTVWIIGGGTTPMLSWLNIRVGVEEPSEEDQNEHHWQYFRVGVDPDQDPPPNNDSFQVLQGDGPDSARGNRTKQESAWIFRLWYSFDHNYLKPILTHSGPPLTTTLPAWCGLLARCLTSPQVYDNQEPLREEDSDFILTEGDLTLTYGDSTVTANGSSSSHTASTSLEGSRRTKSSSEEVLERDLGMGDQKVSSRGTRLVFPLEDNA
As to the kind of experiment: Lithium uptake in PM-NHE7 cells (atomic absorption spectroscopy), dose-response of inhibitors. The assay is classed as cell-based. To be noted: for Ki: calculated from dose-response curves of lithium uptake, 3 to 10 mM LiCl, initial velocity conditions; for affinity to NHE7 / selectivity of affinity NHE7 compare to NHE1: statement in words; for affinity to NHE7: from dose-response curves (figure 1) and table 1; for selectivity of affinity NHE7 compare to NHE1: from table 1. As for the experimental part:
The PM-NHE7 cells selected for NHE7 expression at the plasma membrane (Milosavljevic N, Monet M, Léna I, Brau F, Lacas-Gervais S, Feliciangeli S, Counillon L, Poet M., The intracellular Na(+)/H(+) exchanger NHE7 effects a Na(+)-coupled, but not K(+)-coupled proton-loading mechanism in endocytosis. Cell rep. 7, 1-8, May 8, 2014, 689-696) were seeded to confluence on 24-well plates and incubated for 60 minutes at 37°C in a medium containing 50 mM NH4Cl , 70mM Choline Chloride, 2 mM CaCl2, 1 mM MgCl2, 5 mM glucose, 15 mM Hepes (pH 7.4). The cells were then rinsed twice in less than 15 seconds with 120 mM choline chloride buffered to pH 7.4 with 15 mM Tris, 1 mM MgCl2, 2 mM CaCl2. The uptake of lithium was then started by adding the same medium containing 3 to 10 mM LiCl and the various inhibitor concentrations. Under these conditions, Lithium uptake is linear. All dose-response curves for the inhibitors tested in this study were therefore measured under initial velocity conditions in which equation (1) applies. At the end of the uptake time the cells were rinsed rapidly (4 rinses in less than 10 seconds) in PBS at 4° C. 250µl of 25% nitric acid were added per well. The cell contents were then transferred into eppendorf tubes. The tubes were centrifuged for 5 min at 13000 rpm at room temperature. The supernatant is used to measure the activity of NHE7 (or NHE1 in control) by measuring intracellular the Li^+ concentrations (which are due to NHE7 transport) by atomic absorption spectroscopy. (Thermo ICE 3000 Series AA Spectrometer). Data obtained from the uptake measurements were used to plot the dose responses curves i.e. the % of maximal lithium uptake as a function of the inhibitors concentrations (Log scale, figure 1).
Because acylguanidines are competitive inhibitors of NHE7, the dose response curves of different concentrations of inhibitors on the rate of transport are given by equation (1) below: V = Vmax[Li^(*)]/(Kmapp+[Li^+]); With Kmapp = Km(1 + [I]/Ki] [formula] • where [I] is the inhibitor concentration, • Vmax is the maximum speed of the exchanger, expressed in (100)% in the dose response curves, • Km is the value of the Michaelis constant for Lithium (see Milosavljevic et al., Cell rep. 7, 1-8, May 8, 2014, 689-696 for NHE7) • Ki the dissociation constant for the inhibitor under consideration.
It is simple to obtain a linear equation by plotting the Maximal rate (w/o inhibitor) versus the rates in the presence of inhibitor, as a function of the inhibitor concentration. The slope is then proportional to 1/Ki. Table 1: Ki of the tested inhibitors

A further assay concerns the target NHE1 (Homo sapiens, UniProt P19634). Description: Lithium uptake measurement, NHE1 control. The assay is classed as cell-based. The conditions noted are these: for Ki: calculated from dose-response curves of lithium uptake; for Km: Michaelis constant of the cation for the exchanger. The protocol: The uptake of lithium was then started by adding the same medium containing 3 to 10 mM LiCl and the various inhibitor concentrations. […] At the end of the uptake time the cells were rinsed rapidly (4 rinses in less than 10 seconds) in PBS at 4° C. 250µl of 25% nitric acid were added per well. The cell contents were then transferred into eppendorf tubes. The tubes were centrifuged for 5 min at 13000 rpm at room temperature. The supernatant is used to measure the activity of NHE7 (or NHE1 in control) by measuring intracellular the Li^+ concentrations (which are due to NHE7 transport) by atomic absorption spectroscopy. (Thermo ICE 3000 Series AA Spectrometer). Data obtained from the uptake measurements were used to plot the dose responses curves i.e. the % of maximal lithium uptake as a function of the inhibitors concentrations (Log scale, figure 1).
It is simple to obtain a linear equation by plotting the Maximal rate (w/o inhibitor) versus the rates in the presence of inhibitor, as a function of the inhibitor concentration. […] Table 1: Ki of the tested inhibitors

The target of assay [2] is T1, NHE7. The conditions noted are these: Michaelis constant of the cation for the exchanger; cited from earlier work.
The subject of assay [3] is WT NHE7 transfected cells. As to the kind of experiment: Endocytosis kinetics: Alexa 555 transferrin uptake in cells expressing NHE7 in intracellular compartments. The conditions noted are these: different concentrations of zoniporide, five minutes of incubation, figure 2. The assay is classed as cell-based. As for the experimental part: […] Alexa 555 transferrin (Invitrogen) was bound for various times at 37°C on WT NHE7 transfected cells (that express NHE7 specifically in intracellular compartments) in control conditions or in the presence of zoniporide at the defined concentrations. After five minutes of incubation, the coverslips were rapidly rinsed in ice-cold PBS and the cells were fixed in ice-cold 4% PFA and then permeabilized with 2% saponin. The nuclei were then stained with DAPI. These different steps rinse the transferrin, which has not been internalized, and stop intracellular traffic. This makes it possible to visualize the endocytosis at different times. The coverslips were then mounted and photographed for image analysis and quantification. […] Endocytosis was quantified as the normalized fluorescence accumulation in intracellular clusters as a function of time using a home-made macro (Mica Imaging platform, Nice) on Image J NIH ImageJ (Schneider, C. A.; Rasband, W. S. & Eliceiri, K. W. (2012), "NIH Image to ImageJ: 25 years of image analysis", Nature methods 9(7): 671-675). […] Then, all the clusters of red pixels (Alexa transferrin 555) with a density, a shape and a surface defined by the macro (and parameterizable by the user) are quantified inside each mask. […]

Chain of NHE1 (P19634 whole entry, species assumed): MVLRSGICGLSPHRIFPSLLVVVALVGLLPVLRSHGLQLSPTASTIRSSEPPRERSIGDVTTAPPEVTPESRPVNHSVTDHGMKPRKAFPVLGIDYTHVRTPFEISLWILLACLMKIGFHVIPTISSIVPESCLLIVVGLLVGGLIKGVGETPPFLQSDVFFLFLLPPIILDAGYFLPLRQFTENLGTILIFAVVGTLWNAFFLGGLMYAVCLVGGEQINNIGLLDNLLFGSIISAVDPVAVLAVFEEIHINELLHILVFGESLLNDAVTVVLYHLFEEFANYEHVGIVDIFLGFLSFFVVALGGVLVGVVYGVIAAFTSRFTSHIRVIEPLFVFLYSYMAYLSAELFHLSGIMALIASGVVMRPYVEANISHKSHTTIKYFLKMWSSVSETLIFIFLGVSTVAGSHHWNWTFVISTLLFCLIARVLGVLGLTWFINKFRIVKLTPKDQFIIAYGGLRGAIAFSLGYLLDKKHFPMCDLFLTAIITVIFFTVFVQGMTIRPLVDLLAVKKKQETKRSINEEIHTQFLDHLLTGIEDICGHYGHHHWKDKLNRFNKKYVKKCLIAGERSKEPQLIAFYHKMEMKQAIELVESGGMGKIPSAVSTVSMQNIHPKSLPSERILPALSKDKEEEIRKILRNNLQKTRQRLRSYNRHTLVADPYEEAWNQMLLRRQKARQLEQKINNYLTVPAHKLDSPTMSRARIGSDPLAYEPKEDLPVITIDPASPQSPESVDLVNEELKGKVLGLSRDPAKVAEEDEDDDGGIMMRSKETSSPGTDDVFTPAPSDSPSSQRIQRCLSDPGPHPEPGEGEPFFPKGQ

Take `CCN(c1nc(N)c(C(=O)NC(=N)N)nc1Cl)C(C)C` [EIPA, 5N-(ethylisopropyl) amiloride]: the Ki (as a rule, a dissociation constant, usually derived from enzyme kinetics or from competition with a known ligand) on NHE7 [1] is 40 nM; at NHE1 it was 100 nM.
The corresponding values for `N=C(N)NC(=O)c1nc(Cl)c(N2CCCCCC2)nc1N` [HMA, hexamethyl-amiloride] are 80 nM and 20 nM.
With `[Li+]` [Li^+, lithium], the Km (usually the substrate concentration at which the rate is half of its maximum) is 10 mM at NHE1 and 16 mM on NHE7 [2].
As to `CN(C)c1nc(N)c(C(=O)NC(=N)N)nc1Cl` [DMA, dimethyl-amiloride], the figures for the inhibition constant Ki at NHE7 [1] and at NHE1 were 170 nM and 100 nM, respectively.
With `N=C(N)NC(=O)c1cnn(-c2cccc3ncccc23)c1C1CC1` [Zoniporide, zoniporide], the “% of endocytosis” value in assay [3] is “dose-dependent effect”. For the same compound, at NHE7 [1], the inhibition constant (Ki) was 3 nM, the “affinity to NHE7” value was “very good affinity” and the “selectivity of affinity NHE7 compare to NHE1” value is recorded as “selective to NHE7 compare to NHE1”. At NHE1, the Ki is 20 nM.
As to `Cc1cc(-n2cccc2)c(S(C)(=O)=O)cc1C(=O)NC(=N)N` [Eniporide, eniporide], at NHE7 [1], the Ki was 2.5 nM, the “affinity to NHE7” value was “very good affinity” and the “selectivity of affinity NHE7 compare to NHE1” value is “selective to NHE7 compare to NHE1”. In addition, the Ki at NHE1 is 40 nM.
Consider `N=C(N)NC(=O)c1nc(Cl)c(N)nc1N` [Amiloride, amiloride], for which, at NHE7 [1], the inhibition constant (Ki) was 1640 nM.
On to `[Na+]` [Na^+, sodium], for which, at NHE1, the Michaelis-Menten constant (Km) turned out to be 30 mM.
Turning to `CC(C)c1ccc(C(=O)NC(=N)N)cc1S(C)(=O)=O` [Cariporide, cariporide], the Ki at NHE7 [1] is 20 nM; at NHE1 it was 40 nM.
